In patent publication US20260200977A1, “PEPTIDE HAVING ACTIVITY OF IMPROVING STATE OF SKIN, AND USE THEREOF” (CAREGEN CO., LTD., priority 2022, published 2026):

What was measured:
NIH3T3 cells = test: Proliferation of skin cells, MTT (change in cell survival rate); format: cell-based, mouse; settings: 50 μM or 100 μM peptide, serum-free media, 72 hours, MTT absorbance 540 nm, FIG. 1
Method: In this example, the aim was to confirm the effect of a peptide according to an example on proliferation of skin cells, by evaluating changes in survival rate of NIH3T3 cells, which are mouse fibroblasts.
Specifically, NIH3T3 cells were seeded in a […] at a density of 1×10^4 cells/well and cultured for 24 hours. Next, the cells were washed once with serum-free DMEM media, and 50 μM or 100 μM of a peptide consisting of an amino acid sequence of SEQ ID NO: 1 was dispensed into 200 μL of the serum-free media, and cultured in a CO2 incubator at 37° C. for 72 hours. Next, the culture was washed twice with PBS, and MTT solution was dispensed into each well at a concentration of 0.5 mg/ml. Next, it was shaded from light and cultured in a CO2 incubator at 37° C. for 4 hours, and the absorbance at 540 nm was measured using a microplate reader (Molecular Devices, USA).

fibronectin = test: Expression of extracellular matrix component by RT-PCR in NIH3T3 cells; format: cell-based, mouse; settings: 10 μM, 50 μM or 1000 μM peptide, 24 hours, FIG. 2, FIG. 3B
Method: (§1) In this example, the aim was to confirm the effect of the peptide according to an example on improving endogenous skin aging, including improvement of wrinkles and enhancement of elasticity, etc., by evaluating the expression levels of collagen type 1 (CoI1a1), fibronectin, elastin, and hyaluronic acid, which are known components of the dermis.
(§2) Specifically, NIH3T3 cells were seeded in a 6-well plate at a density of 3×10^5 cells/well and cultured for 24 hours. Next, the cells were washed once with serum-free DMEM media, and 10 μM, 50 μM or 1000 μM of a peptide consisting of an amino acid sequence of SEQ ID NO: 1 was dispensed into 1 mL of the serum-free media, and cultured in a CO2 incubator at 37° C. for 24 hours. Next, the culture was washed twice with PBS, and RNA was isolated from the culture using easy blue (iNtRON, Cat. No.: 17061, Korea). Next, using an RT kit (Enzynomics, Cat. NO.: RT200, Korea), the isolated RNA was reverse transcribed to synthesize the respective cDNA. Next, using the synthesized 1 μg cDNA, primers for CoI1a1, fibronectin, or elastin, and a PCR kit (Enzynomics, Cat. No.: P581T, Korea), polymerase chain reaction (PCR) was performed. Meanwhile, in this example, an untreated group was used as a control group, and a group to which IGF was added was used as a positive control group, the nucleotide sequences of the primers used in this example are shown in Table 2 below.

elastin = test: as above; format: cell-based, mouse; settings: 10 μM, 50 μM or 1000 μM peptide, 24 hours, FIG. 2, FIG. 3C
Method: as §1, §2

collagen type 1 (CoI1a1) = test: as above; format: cell-based, mouse; settings: 10 μM, 50 μM or 1000 μM peptide, 24 hours, FIG. 2, FIG. 3A
Method: as §1, §2

sirtuin-1 (SIRT-1) = test: Expression of skin barrier factor by RT-PCR in HaCaT cells; format: cell-based; settings: 10 μM, 50 μM or 1000 μM peptide, 24 hours, FIG. 4, FIG. 5A
Method: (§3) In this example, the aim was to confirm the effect of the peptides according to an example on strengthening the skin barrier, by evaluating the expression levels of sirtuin-1 (SIRT-1) or aquaporin-3 (AQP3).
(§4) Specifically, HaCaT cells were seeded in a 6-well plate at a density of 3×10^5 cells/well and cultured for 24 hours. Next, the cells were washed once with serum-free DMEM media, and 10 μM, 50 μM or 1000 μM of the peptide consisting of the amino acid sequence of SEQ ID NO: 1 was dispensed into 1 mL of the serum-free media, and cultured in a CO2 incubator at 37° C. for 24 hours. Next, the culture was washed twice with PBS, and RNA was isolated from the culture using easy blue (iNtRON, Cat. No.: 17061, Korea). Next, using an RT kit (Enzynomics, Cat. NO.: RT200, Korea), the isolated RNA was reverse transcribed to synthesize the respective cDNA. Next, using the synthesized 1 μg cDNA, primers for SIRT-1 or AQP3, and a PCR kit (Enzynomics, Cat. No.: P581T, Korea), polymerase chain reaction (PCR) was performed. Meanwhile, in this example, an untreated group was used as a control group, and a group to which EGF was added was used as a positive control group, the nucleotide sequences of the primers used in this example are shown in Table 3 below.

aquaporin-3 (AQP3) = test: as above; format: cell-based; settings: 10 μM, 50 μM or 1000 μM peptide, 24 hours, FIG. 4, FIG. 5B
Method: as §3, §4

HaCaT cells = test: Reactive oxygen species increased by ultraviolet irradiation, DCFH-DA flow cytometry; format: cell-based; settings: 50 μM or 1000 μM peptide, 15 mJ/cm^2 ultraviolet rays, 24 hours, FACS, FIG. 6
Method: In this example, the aim was to confirm the effect of the peptide according to an embodiment on the antioxidant effect in damaged skin, by evaluating the change in the level of reactive oxygen species in skin cells increased by ultraviolet irradiation.
Specifically, HaCaT cells were seeded in a 6-well plate at a density of 5×10^5 cells/well and cultured for 24 hours. Next, the cells were washed once with serum-free DMEM media, and 50 μM or 1000 μM of a peptide consisting of an amino acid sequence of SEQ ID NO: 1 was dispensed into 1 mL of the serum-free media, and cultured in a CO2 incubator at 37° C. for […]. Next, the above culture was transferred to an e-tube, mixed with 1 ml of PBS, and dispensed into a well plate. Next, using a UV irradiator (VILBER LOURMAT, Cat No.: 3102-BSU, France), 15 mJ/cm^2 ultraviolet rays were irradiated to HaCaT cells. Next, the PBS in the well plate was removed, 900 μL of the culture medium in which the peptides were dispensed was added, and the plate was cultured in a CO2 incubator at 37° C. for 24 hours. Next, the culture was treated with DCFH-DA (2′,7′-dichlorofluorescin diacetate), wrapped in foil, and cultured in a CO2 incubator at 37° C. for 30 minutes. […] After washing the centrifuged cells with PBS, fluorescence values were measured through flow cytometry (FACS, BD, USA). […]

TNRTEVEG [SEQ ID NO: 1]
proliferation of fibroblasts (NIH3T3 cells): promoted | expression of fibronectin (fibronectin): increased | expression of elastin (elastin): increased | expression of CoI1a1 (collagen type 1 (CoI1a1)): increased | expression of SIRT-1 (sirtuin-1 (SIRT-1)): increased | expression of AQP3 (aquaporin-3 (AQP3)): increased | level of reactive oxygen species in keratinocytes increased by ultraviolet irradiation (HaCaT cells): reduced
